Experimental findings from US20090291964A1, “Potentiators of Antibacterial Activity” (priority 2003, published 2009) are described below.

Marks after values point to notes of the source that are not given here.

Common to all, as to assay type: cell-based
In test [1] the test system is E. faecalis ATCC 29212. Nature of the test: Minimal effective concentration (MEC) of EPI for EtBr. Conditions: lowest amount of EPI which produces the maximum effect on the MIC of ethidium bromide. The procedure:
(§1) The MEC was determined as the minimal concentration of EPI that produced the maximal reduction in substrate MIC.
(§2) The minimum effective concentration (MEC) for inhibition of EtBr efflux was determined in S. aureus, E. faecalis and S. pneumoniae for A-106 and C-9; reserpine was used as a comparator (Table 1).

The subject of test [2] is S. aureus ATCC 29213. The test is described as above. Conditions: for MEC of EPI: S. aureus ATCC 29213, lowest amount of EPI which produces the maximum effect on the MIC of ethidium bromide. Here is the method:
as §1, §2

Test [3] deals with S. pneumoniae ATCC 10015. Described as above. Conditions: lowest amount of EPI which produces the maximum effect on the MIC of ethidium bromide (reserpine: maximal subinhibitory concentration). The procedure:
as §1, §2

The test system of test [4] is S. aureus SA-K2068 (non-NorA multidrug efflux pump overproducing). Nature of the test: microbe, parasite or virus in culture. Conditions: for reduction of MIC of ciprofloxacin / reduction of MIC of gatifloxacin / reduction of MIC of levofloxacin / reduction of MIC of norfloxacin: K2068, EPIs at 4 times MEC for EtBr, A-106 at 100 μg/ml; for Fold-reduction in MIC: gatifloxacin, S. aureus K2068 (nonNorA pump overproducer); for MIC: Staphylococcus aureus, read-out: MIC of EtBr with EPI. The text has this:
A variety of strains may be used in these experiments, including, but not limited to, S. aureus ATCC 29213, E. faecalis ATCC 29212, and S. pneumoniae, S. aureus strains SA-1199, SA-1199B, SA-8325-4, and SA-K2068. S. aureus ATCC 29213, E. faecalis ATCC 29212, and S. pneumoniae ATCC 10015 were obtained from the American Type Culture Collection (Manassas, Va.). S. aureus strains SA-1199 (clinical isolate, susceptible), SA-1199B (SA-1199, NorA overproducing, also has A116E GrlA mutation), SA-8325-4 (NCTC 8325 cured of prophages), SA-K2068 (SA-8325-4, non-NorA multidrug efflux pump overproducing mutation) were obtained from Glenn Kaatz (Kaatz et al., “Identification and characterization of a novel efflux-related multidrug resistance phenotype in Staphylococcus aureus”, J. Antimicrob. Chemother. 50:833-838 (2002); 1993; Kaatz et al., “Phenothiazines and thioxanthenes inhibit multidrug efflux pump activity in Staphylococcus aureus”, Antimicrob. Agents Chemother. 47:719-726, Kaatz et al., “Efflux-mediated fluoroquinolone resistance in Staphylococcus aureus. Antimicrob. Agents Chemother.”, 37:1086-1094, 1993)).
3% sterile laked horse blood (Quad Five, Ryegate, Mont.) was added to assays for E. faecalis and S. Pneumoniae. A final concentration of 1% DMSO was present in all assays.
Recent more hydrophobic fluoroquinolones such as gatifloxacin and moxifloxacin are less well recognized by NorA; however, recently one other pump in S. aureus has been described which also recognizes hydrophobic fluoroquinolones (Kaatz et al. 2002, supra). To investigate the potential of A-106 and C-9 to block the efflux of several fluoroquinolones in cells with constituitively over-expressed efflux pumps, we used S. aureus strains SA-1199B and K2068 (Table 3). […] Kaatz et al., “Phenothiazines and thioxanthenes inhibit multidrug efflux pump activity in Staphylococcus aureus”, Antimicrob. Agents Chemother. 47:719-726 (2003).

Test [5] has as its system S. aureus ATCC 29213. Nature of the test: Minimal effective concentration (MEC) of EPI for gatifloxacin. Conditions: lowest amount of EPI which produces the maximum effect on the MIC of gatifloxacin. The procedure: as §1
Since any given compound may be recognized by an unknown number of efflux pumps in a particular organism, we reasoned that the MEC of A-106 and C-9 should vary for different antibiotics. Also, the MEC of A-106 and C-9 should vary with the degree of efflux expression in a given strain. […] This was confirmed with two other wild type strains, SA-8325-4 and SA-1199 (Table 3).

Test [6] deals with B. subtilis. Nature of the test: MIC of EtBr in presence and absence of EPI. Conditions: B. subtilis wild type, EPI up to 100 μg/ml, data not shown. The text has this:
(§3) EtBr is a general substrate for many different efflux pumps in bacteria. Markham et al., “Multiple Novel Inhibitors of the NorA Multidrug Transporter of Staphylococcus aureus”, Antimicrob. Agents Chemother. 43:2404-2408 (1999). Since EtBr is a non-specific DNA intercalator, the only known mechanism of resistance to EtBr is via efflux. Markham et al., “Multiple Novel Inhibitors of the NorA Multidrug Transporter of Staphylococcus aureus”, Antimicrob. Agents Chemother. 43:2404-2408 (1999).

The test system of test [7] is permeability mutant strains of E. coli. Kind of test: MIC of EtBr in presence and absence of EPI.
Excerpt: as §3

Test [8] has as its system wild type gram negative organisms (E. coli, P. aeruginosa, and H. influenzae). Nature of the test: MIC of EtBr in presence and absence of EPI. Conditions: all wild type gram-negative organisms, compared with gram-positive.
Excerpt: as §3

The subject of test [9] is S. aureus ATCC 29213. Kind of test: MIC by NCCLS microdilution, antibacterial agents with and without EPI. Conditions: at 100 μg/ml.
Where [10] appears, read: S. aureus K2068 (nonNorA pump overproducer) (Table 4).
Where [11] appears, read: S. aureus K2068, EPI at 4X the MEC for EtBr, VX-710 at 100 μg/ml.

Consider `COc1cc(C(=O)C(=O)N2CCCC[C@H]2C(=O)OC(CCCc2cccnc2)CCCc2cccnc2)cc(OC)c1OC` [A-106], for which the “MEC of EPI” value in [1] was “≧100 μg/ml”. Also, the “MEC for EtBr efflux” value in test [2] (ATCC 29213, Table 1) is ≤ 100 µg/mL. In test [2], the “MEC of EPI” value is given as “≧100 μg/ml”. Besides, in test [3], the “MEC of EPI” value is on record as “≧100 μg/ml”. In test [4], the “reduction of MIC of ciprofloxacin” value is recorded as 4 fold, the “reduction of MIC of gatifloxacin” value came to 2 fold, the “reduction of MIC of levofloxacin” value is recorded as 2 fold and the “reduction of MIC of norfloxacin” value is 2 fold. For the same compound, the “Fold-reduction in MIC” value in test [4] worked out at 4. Moreover, the “MIC of gatifloxacin with EPI” value in [4] (setting [10]) was 0.25 µg/mL. For the same compound, in test [4] (setting [11]), the “MIC of EtBr with EPI” value was 0.4 µg/mL, the “MIC of ciprofloxacin with EPI” value stood at 0.5 µg/mL, the “MIC of gatifloxacin with EPI” value was 0.25 µg/mL and the “MIC of gentamicin with EPI” value was 0.063 µg/mL. Moreover, in test [4] (setting [11]), the “MIC of levofloxacin with EPI” value worked out at 0.5 µg/mL and the “MIC of norfloxacin with EPI” value was 1 µg/mL. In addition, the MEC in test [5] was >100 µg/mL. The “reduction of the MIC of EtBr” value in test [6] was determined as 8 fold. In addition, the efflux inhibitory activity entry in test [7] was “some efflux inhibitory activity was observed”. The “activity against efflux of EtBr” value in test [8] was “much less active”. Also, the “intrinsic antibacterial activity of EPI” value in test [9] is “no intrinsic antibacterial activity”.
On to `COc1cc(C(=O)C(=O)N(C)[C@@H](Cc2ccc(Cl)cc2)C(=O)N(Cc2ccccc2)C(CCc2ccncc2)CCc2ccncc2)cc(OC)c1OC` [C-9, (S)—N-Benzyl-2-(methyl-(2-oxo-2-(3,4,5-trimethoxyphenyl)acetyl)amino)-3-(4-chloro-phenyl)-N-(3-pyridin-4-yl-1-(2-pyridin-4-yl-ethyl)propyl)propionamide], for which the “MEC of EPI” value in [1] is 6.3 µg/mL. The “MEC of EPI” value in [2] is 1.6 µg/mL. Further, the “MEC of EPI” value in [3] amounted to 12.5 µg/mL. Further, in test [4], the “reduction of MIC of ciprofloxacin” value is recorded as 8 fold, the “reduction of MIC of gatifloxacin” value is reported as 4 fold, the “reduction of MIC of levofloxacin” value was found to be 2 fold and the “reduction of MIC of norfloxacin” value stood at 8 fold. In test [4], the MIC amounted to 3.1 µg/mL and the “Fold-reduction in MIC” value stood at 2. Further, in test [4] (setting [10]), the “MIC of gatifloxacin with EPI” value was found to be 0.5 µg/mL. Besides, in test [4] (setting [11]), the “MIC of ciprofloxacin with EPI” value turned out to be 1 µg/mL, the “MIC of gatifloxacin with EPI” value came out at 0.5 µg/mL, the “MIC of gentamicin with EPI” value was 0.063 µg/mL and the “MIC of levofloxacin with EPI” value amounted to 0.5 µg/mL. In addition, the “MIC of norfloxacin with EPI” value in [4] (setting [11]) was 4 µg/mL. Also, in test [5], the MEC was >100 µg/mL. The “reduction of the MIC of EtBr” value in test [6] came out at 8 fold. Besides, in test [7], the efflux inhibitory activity entry was “some efflux inhibitory activity was observed”. Also, the “activity against efflux of EtBr” value in [8] is given as “much less active”. For the same compound, the “intrinsic antibacterial activity of EPI” value in test [9] is given as “no intrinsic antibacterial activity”.
Regarding `COC(=O)[C@H]1[C@H]2C[C@@H]3c4[nH]c5cc(OC)ccc5c4CCN3C[C@H]2C[C@@H](OC(=O)c2cc(OC)c(OC)c(OC)c2)[C@@H]1OC` [reserpine, reference compound], the “MEC of EPI” value in test [1] is “≧100 μg/ml”. Further, in [2], the “MEC of EPI” value worked out at 6.3 µg/mL. In [3], the “MEC of EPI” value is reported as 25^c μg/ml. The “MIC of gatifloxacin with EPI” value in test [4] (setting [10]) is 0.25 µg/mL. Moreover, in test [4] (setting [11]), the “MIC of ciprofloxacin with EPI” value was 0.5 µg/mL, the “MIC of gatifloxacin with EPI” value was 0.25 µg/mL, the “MIC of gentamicin with EPI” value was determined as 0.063 µg/mL and the “MIC of levofloxacin with EPI” value came to 0.5 µg/mL. Besides, the “MIC of norfloxacin with EPI” value in test [4] (setting [11]) was 1 µg/mL. Also, in test [4], the MIC worked out at 1.6 µg/mL and the “Fold-reduction in MIC” value is listed as 4. Besides, the MEC in [5] is >100 µg/mL.
